Assays:
[1] = Solubility of Fe(III)BBNH in Pluronic P85 formulations; assay type: physicochemical
Procedure: Various amounts of Fe(III)BBNH were dissolved in 200 μl dimethyl formamide and aliquots (20 μl each) were mixed with the equal volumes of Pluronic P85 solutions of various concentrations in methanol. The water solution of sodium acetate (10 μl) was added to each sample to the final concentration of the salt of 60 mM. The samples were dried by using a speed-vac centrifuge. Each sample was dissolved in 100 μl of 10% Pluronic P85 solution in water. The samples were intensively agitated during two hours at room temperature using a rotator. After that the samples were centrifuged at 10,000 g for 10 min. The supernatants were separated and then diluted with 10% Pluronic P85 solution in water to fit the range of calibration curve. The aliquots (50 μl each) were transferred to 96-well plate and analyzed. The optical densities were determined at λ400 nm using a microplate reader. Fe(III)BBNH concentrations in the samples were then determined by using the calibration shown in Example 4A. Each concentration of Fe(III)BBNH was analyzed in triplicates. Each concentration of Fe306 was measured in triplicates.

[2] = Water solubility of Fe(III)BBNH in various Pluronic solutions; assay type: physicochemical; settings: 180 min
Procedure: The samples of Fe(III)BBNH (1 mg of each) were placed in 1 ml of various water solutions of Pluronics. The samples were intensively agitated during three hours at room temperature using a rotator. The samples were then centrifuged at 10,000g for 10 min. The supernatants (500 μl each) were separated and then dried using a speed-vac centrifuge. Each sample was dissolved in 500 μl DMSO and aliquots (50 μl each) were transferred to 96-well plate. The optical densities were determined at λ400 nm using a microplate. The test compound concentrations in the samples were then determined by using the calibration shown in Example 4A. Each concentration of Fe(III)BBNH was analyzed in triplicates. Each concentration of Fe306 was measured in triplicates.

[3] = system: cells; test: Cytotoxicity (general statement); assay type: cell-based
[4] = Solubility of Fe(III)BBNH in organic solutions with various salts and pH; assay type: physicochemical
Procedure: The samples of Fe(III)BBNH (1 mg of each) were placed in 1 ml of following range of solvents:
The samples were intensively agitated during three hours at room temperature using a rotator. After that the samples were centrifuged at 10,000 g for 10 min. The supernatants (500 μl each) were separated and then dried by using a speed-vac centrifuge. Each sample was dissolved in 500 μl DMSO and the aliquots (50 μl each) were transferred to 96-well plate. The optical densities were determined at λ400 nm using a microplate reader. Fe(III)BBNH concentrations in the samples were then determined by using the calibration shown in Example 4A. Each concentration of Fe(III)BBNH was analyzed in triplicates.

[5] = Solubility of Fe(III)BBNH in water and organic solvents; assay type: physicochemical; settings: room temperature, 180 min
Procedure: One mg of Fe(III)BBNH was dissolved in 1 ml of dimethyl sulfoxide (DMSO). Aliquots of the solution were further diluted with DMSO to achieve the following final concentrations: […]. Each concentration point of was prepared in triplicates. The aliquots […] of the samples were transferred in 96-well plate. The optical densities (OD) at […] of all the samples were measured by using Microplate Reader.
The samples of Fe(III)BBNH (1 mg each) were placed in 1 ml of the following solvents:
The samples were intensively agitated during three hours at room temperature using a rotator. After that the samples were centrifuged at 10,000 g for 10 minutes. The supernatants (500 μl each) were separated and then were dried by using a speed-vac centrifuge. Each sample was then dissolved in 500 μl DMSO and aliquots (50 μl each) were transferred to 96-well plate. The optical densities were determined at λ400 nm for using microplate reader. Concentrations of the test compound in the samples were then determined by using the above shown calibration data. Each concentration of the test compound was measured in triplicates.

CC(C)(C)c1ccc(C(=O)NN=Cc2c(O)ccc3ccccc23)cc1.C[O-].[Cl-].[Cl-].[Fe+3] [Fe(III)-BBNH]
Solubility ([1]; 1% P85, 1 mg/ml added, 120 min): 1120 µg/mL | Solubility ([1]; 1% P85, 2 mg/ml added): 2120 µg/mL | Solubility ([1]; 1% P85, 5 mg/ml added): 1400 µg/mL | Solubility ([1]; 1% P85, 10 mg/ml added, 120 min): 1390 µg/mL | Solubility ([1]; 1% P85, 20 mg/ml added, 120 min): 730 µg/mL | Solubility ([1]; 1% P85, 30 mg/ml added, 120 min): 10 µg/mL | Solubility ([1]; 1% P85, 40 mg/ml added, 120 min): 30 µg/mL | Solubility ([1]; 2% P85, 1 mg/ml added, 120 min): 1130 µg/mL | Solubility ([1]; 2% P85, 2 mg/ml added): 2160 µg/mL | Solubility ([1]; 2% P85, 5 mg/ml added): 5020 µg/mL | Solubility ([1]; 2% P85, 10 mg/ml added, 120 min): 3100 µg/mL | Solubility ([1]; 2% P85, 20 mg/ml added, 120 min): 2710 µg/mL | Solubility ([1]; 2% P85, 30 mg/ml added, 120 min): 2390 µg/mL | Solubility ([1]; 2% P85, 40 mg/ml added, 120 min): 420 µg/mL | Solubility ([1]; 3% P85, 1 mg/ml added, 120 min): 1040 µg/mL | Solubility ([1]; 3% P85, 2 mg/ml added): 2240 µg/mL | Solubility ([1]; 3% P85, 5 mg/ml added): 5060 µg/mL | Solubility ([1]; 3% P85, 10 mg/ml added, 120 min): 7420 µg/mL | Solubility ([1]; 3% P85, 20 mg/ml added, 120 min): 5150 µg/mL | Solubility ([1]; 3% P85, 30 mg/ml added, 120 min): 5140 µg/mL | Solubility ([1]; 3% P85, 40 mg/ml added, 120 min): 2960 µg/mL | Solubility ([1]; 5% P85, 1 mg/ml added, 120 min): 1090 µg/mL | Solubility ([1]; 5% P85, 2 mg/ml added): 2080 µg/mL | Solubility ([1]; 5% P85, 5 mg/ml added): 5090 µg/mL | Solubility ([1]; 5% P85, 10 mg/ml added, 120 min): 10510 µg/mL | Solubility ([1]; 5% P85, 20 mg/ml added, 120 min): 10360 µg/mL | Solubility ([1]; 5% P85, 30 mg/ml added, 120 min): 12250 µg/mL | Solubility ([1]; 5% P85, 40 mg/ml added, 120 min): 10480 µg/mL | Solubility ([1]; 10% P85, 1 mg/ml added, 120 min): 1080 µg/mL | Solubility ([1]; 10% P85, 2 mg/ml added): 2060 µg/mL | Solubility ([1]; 10% P85, 5 mg/ml added): 5160 µg/mL | Solubility ([1]; 10% P85, 10 mg/ml added, 120 min): 10710 µg/mL | Solubility ([1]; 10% P85, 20 mg/ml added, 120 min): 19060 µg/mL | Solubility ([1]; 10% P85, 30 mg/ml added, 120 min): 22870 µg/mL | Solubility ([1]; 10% P85, 40 mg/ml added, 120 min): 26240 µg/mL | Solubility of Fe(III)BBNH ([2]; Pluronic F87 (2% w/v) in water): 992.5 µg/mL | Solubility of Fe(III)BBNH ([2]; Pluronic F108 (2% w/v) in water): 86.5 µg/mL | Solubility of Fe(III)BBNH ([2]; Pluronic F127 (2% w/v) in water): 113.6 µg/mL | Solubility of Fe(III)BBNH ([2]; Pluronic L44 (2% w/v) in water): 986.8 µg/mL | Solubility of Fe(III)BBNH ([2]; Pluronic L61 (1% w/v) in water): 3.5 µg/mL | Solubility of Fe(III)BBNH ([2]; Pluronic L64 (2% w/v) in water): 996.6 µg/mL | Solubility of Fe(III)BBNH ([2]; Pluronic L81 (2% w/v) in water): 175.3 µg/mL | Solubility of Fe(III)BBNH ([2]; Pluronic P84 (1% w/v) in water): 987.2 µg/mL | Solubility of Fe(III)BBNH ([2]; Pluronic P85 (1% w/v) in water): 998.3 µg/mL | Solubility of Fe(III)BBNH ([2]; Pluronic P123 (2% w/v) in water): 125.7 µg/mL | cytotoxicity [3]: virtually no cytotoxicity | Concentration of Fe306 dissolved in the sample ([4]; Acetonitrile:10% Ammonium Acetate (0.01 M) pH 3.0): 125.7 µg/mL | Concentration of Fe306 dissolved in the sample ([4]; Acetonitrile:10% Ammonium Acetate (0.01 M) pH 5.0, 180 min): 223.9 µg/mL | Concentration of Fe306 dissolved in the sample ([4]; Acetonitrile:10% Ammonium Acetate (0.01 M) pH 7.0, 180 min): 304.7 µg/mL | Concentration of Fe306 dissolved in the sample ([4]; Acetonitrile:10% Ammonium Formate (0.01 M) pH 3.0): 172.9 µg/mL | Concentration of Fe306 dissolved in the sample ([4]; Acetonitrile:10% Ammonium Formate (0.01 M) pH 5.0, 180 min): 233.6 µg/mL | Concentration of Fe306 dissolved in the sample ([4]; Acetonitrile:10% Ammonium Formate (0.01 M) pH 6.2, 180 min): 200.1 µg/mL | Concentration of Fe306 dissolved in the sample ([4]; Methanol:10% 0.01 M phosphate buffer pH 3.0): 14.4 µg/mL | Concentration of Fe306 dissolved in the sample ([4]; Methanol:10% 0.01 M phosphate buffer pH 5.0, 180 min): 14.9 µg/mL | Concentration of Fe306 dissolved in the sample ([4]; Methanol:10% Ammonium Acetate (0.01 M) pH 3.0): 26.2 µg/mL | Concentration of Fe306 dissolved in the sample ([4]; Methanol:10% Ammonium Acetate (0.01 M) pH 5.0, 180 min): 76.6 µg/mL | Concentration of Fe306 dissolved in the sample ([4]; Methanol:10% Ammonium Acetate (0.01 M) pH 7.0, 180 min): 94.4 µg/mL | Concentration of Fe306 dissolved in the sample ([4]; Methanol:10% Ammonium Formate (0.01 M) pH 3.0): 50.9 µg/mL | Concentration of Fe306 dissolved in the sample ([4]; Methanol:10% Ammonium Formate (0.01 M) pH 5.0, 180 min): 43.4 µg/mL | Concentration of Fe306 dissolved in the sample ([4]; Methanol:10% Ammonium Formate (0.01 M) pH 6.2, 180 min): 31.2 µg/mL | Solubility of Fe(III)BBNH dissolved in the sample ([5]; Acetonitrile 100%): 163.6 µg/mL | Solubility of Fe(III)BBNH dissolved in the sample ([5]; Acetonitrile: 10% H2O): 491.4 µg/mL | Solubility of Fe(III)BBNH dissolved in the sample ([5]; Acetonitrile: 20% H2O): 293.9 µg/mL | Solubility of Fe(III)BBNH dissolved in the sample ([5]; DMFA 100%): 1000.2 µg/mL | Solubility of Fe(III)BBNH dissolved in the sample ([5]; DMSO 100%): 1001.4 µg/mL | Solubility of Fe(III)BBNH dissolved in the sample ([5]; Methanol 100%): 505.6 µg/mL | Solubility of Fe(III)BBNH dissolved in the sample ([5]; Methanol: 10% H2O): 206.7 µg/mL | Solubility of Fe(III)BBNH dissolved in the sample ([5]; Water 100%): < 0.001 µg/mL
